The test system of one assay is B. subtilis 168 (pBMV4). Description: paper disk growth inhibition on agar medium, B. subtilis 168 (pBMV4). The format is cell-based, Bacillus subtilis. As to conditions: 50 μl of 5 μg/ml fosmidomycin on paper disk, 37° C. overnight. Here is the method: The B. subtilis 168 (pBMV4) was subjected to shaking culturing at 37° C. overnight in 5 ml of LB liquid medium containing 3.4 μg/ml chloramphenicol. […]
The gene on the pBMV4 is expressed only in the presence of IPTG 50 μl of aqueous solution of 5 μg/ml fosmidomycin was dropped on a paper disk, and then the paper disk was placed on the above two types of agar mediums, followed by culturing at 37° C. overnight.

For assay [1], the system named is B. subtilis delypgA (pBMV4). The assay can be described thus: paper disk growth inhibition on agar medium, B. subtilis delypgA (pBMV4). The assay is classed as cell-based, Bacillus subtilis. As to conditions: 50 μl of 5 μg/ml fosmidomycin on paper disk, 37° C. overnight. The procedure: The B. subtilis delypgA (pBMV4) was subjected to shaking culturing at 37° C. overnight in 5 ml of LB liquid medium containing 3.4 μg/ml chloramphenicol.
One thousandth amount of the above culture solution was added into Nutrient Broth “Eiken” (Eiken Chemical Co., Ltd.) containing 3.4 μg/ml chloramphenicol to prepare an agar medium.
One thousandth amount of the above culture solution was added into Nutrient Broth “Eiken” containing 1 mM IPTG, 3.4 μg/ml chloramphenicol and 0.02% mevalonic acid to prepare an agar medium. The gene on the pBMV4 is expressed only in the presence of IPTG
50 μl of aqueous solution of 5 μg/ml fosmidomycin was dropped on a paper disk, and then the paper disk was placed on the above two types of agar mediums, followed by culturing at 37° C. overnight.

Where [2] appears, read: medium to which mevalonic acid and IPTG were added.
Setting [3] is: medium to which mevalonic acid and IPTG were not added.

As for `O=CN(O)CCCP(=O)(O)O` [fosmidomycin], the growth inhibition ring result in the assay with B. subtilis 168 (pBMV4) (setting [2]) was “not observed”; in the assay on B. subtilis 168 (pBMV4) (setting [3]), “observed”; in assay [1] (setting [2]) it was “not observed”; in assay [1] (setting [3]) it was “observed”.

The values are drawn from US20030170662A1, “Method for screening substance specifically inhibiting non-mevalonate pathway” (priority 2000, published 2003).
